Measured values reported in patent publication US11331290B2, “Niclosamide for the treatment of cancer metastasis” (Max-Delbrück-Centrum für Molekulare Medizin in der …, priority 2011, dated 2022).

Columns and labels:
Type in all cases: cell-based, human
[1] = system: WNT/CTNNB1 pathway (LEF/TCF transcription factor reporter); test: WNT/CTNNB1 pathway activity reporter assay (TOP/FOPflash); settings: 24 h
Description: The lymphoid enhancer-binding factor 1 (LEF)/transcription factor (TCF) activity reporter assay, also known as TOP/FOPflash assay (Promega, Madison, Wis.) was previously used to analyze the WNT/CTNNB1 pathway activity in human colon cancer cells (24). It comprises the TOPflash plasmid which contains a hexameric repetition of the LEF/TCF-binding element upstream of a thymidine kinase (TK) promoter and firefly luciferase as reporter gene. The FOPflash plasmid comprised the exact sequence of the TOPflash plasmid, but with point mutated LEF/TCF-binding sites. In the assay, 8×10^4 HCT116 cells were plated in 24-well-plates and were given 15 hours to attach to the bottom of the well. Cells were transfected with TOPflash or FOPflash plasmids using Metafecten according to the manufacturer's instruction 24 hours before they were treated with 1 μM niclosamide or the respective amount of DMSO for another 24 hours. Luciferase activity as read out for LEF/TCF activity and thus WNT/CTNNB1 pathway activity was measured by the Steady Glow™ Luciferase Assay System (Promega) according to the manufacturer's instructions in the luminescence reader SpectraFluor Plus (Tecan) with 1500 milliseconds exposure time and a gain of 150. TOPflash reporter gene expression (representing the WNT pathway activity) was normalized to FOPflash reporter gene expression (representing basal reporter gene expression and transfection efficiency). The average of three independent experiments is given here, whereas each experiment was performed in duplicate.
For WNT pathway analysis the following cells were applied: HCT116 cells (heterozygous for gain-of-function-mutated CTNNB1; wt/mut), HAB-68mut cells (deletion mutant of HCT116, expressing only gain-of-function-mutated CTNNB1: −/mut) and HAB-92 wt cells (deletion mutant of HCT116, expressing only wild-type CTNNB1: wt/−). (A) CTNNB1 genotype dependent effect of niclosamide on LEF/TCF transcription factor reporter gene expression. Cells were treated with 1 μM niclosamide for 24 hours. Reporter gene expression was determined by luciferase activity measurement. For each condition and cell line TOPflash expression was normalized to FOPflash expression. (B) CTNNB1 genotype dependent effect of niclosamide on S100A4 expression. Cells were treated with 1 μM niclosamide for 24 hours. S100A4 expression was analyzed by qRT-PCR and immunoblot. (C) CTNNB1 genotype dependent effect of niclosamide on migration rates. Cells were treated with 1 μM niclosamide for 24 hours and cell migration was determined by Boyden chamber assay. Data represents mean±SE of at least three independent experiments. Differences were analyzed by Student's t test (n.s.; not statistically significant). (D) Nuclear localization of CTNNB1 under niclosamide treatment. Nuclear extracts of HCT116 cells treated with the indicated concentrations of niclosamide for 18 hours were analyzed by immunoblot. (E) Effect of niclosamide on CTNNB1/TCF complex. Nuclear extracts of HCT116 cells treated with the indicated concentrations of niclosamide for 18 hours were analyzed by EMSA for the TCF-binding site of the S100A4 promoter. Supershift was performed by addition of a monoclonal anti-CTNNB1 antibody. (F) Presence of CTNNB1 on the S100A4 promoter under niclosamide treatment. HCT116 cells were treated with 1 μM niclosamide for 18 hours and processed for ChIP assay. Soluble chromatin was immunoprecipitated with a monoclonal anti-CTNNB1 antibody or a nonspecific control IgG antibody. Primers used in PCR amplified a 167 bp fragment of the S100A4 promoter or 149 bp fragment of the FOS promoter. The input verified the integrity of the PCR. […] Data shown are representatives of at least two independent experiments.

LS174T cells = test: Boyden chamber invasion assay (Matrigel); settings: 1 μM, 24 h
Method: (§1) HCT116, SW620, LS174T, SW480 and DLD-1 cells were used in cell migration and invasion analysis performed with Boyden chamber assay. 400 μL containing 2.5×10^5 cells were seeded into each transwell chamber with filter membranes of 12.0 μm pore size (Millipore, Schwalbach, Germany). For invasion filter membranes were coated with 50 μL Matrigel (diluted 1:3 in RPMI-1640; BD Biosciences) 10 minutes before cells were seeded. Fresh medium (600 μL) were added to the bottom chamber and cells were allowed to attach to the insets for 15 hours. Both chambers were treated with 1 μM niclosamide or the respective amount of DMSO and incubated at 37° C. and 5% CO2 in a humidified incubator for 24 hours. Afterwards insets were removed and cells that had migrated through the membrane to the lower chamber were trypsinized and counted in a Neubauer chamber (LO-Laboroptik, Bad Homburg, Germany). Each well was counted ten times. Each migration or invasion experiment was performed in duplicate. The average number of migrated or invaded cells was determined for at least three independent experiments.
(§2) (A) S100A4 expression under niclosamide treatment. Cells were treated with 1 μM niclosamide for 24 hours. S100A4 expression was analyzed with qRT-PCR and immunoblot. (B) Cell migration under niclosamide treatment. Migration rates of cells treated with 1 μM niclosamide for 24 hours were determined in a Boyden chamber assay values were normalized to solvent-treated SW620 cells. (C) Cell invasion under niclosamide treatment. Cells were seeded onto Matrigel covered transwells and treated with 1 μM niclosamide for 24 hours. Invaded cells in the lower chamber were counted and normalized to solvent-treated SW620 cells. Differences in solvent vs. niclosamide-treated cells were analyzed by Student's t test. Data represent mean±SE of at least two independent experiments each performed in triplicate. (D) Directed migration under niclosamide treatment. Wounds of 300 μM width were set in a 60% confluent monolayer of cells on day 1. Cells were treated daily with 1 μM niclosamide for 4 days. Microphotographs of day 4 are presented here with black lines indicating margins of the wound on day 1; scale bar represents 200 μM. Directed migration data shown are representatives of three independent experiments. (E) Adhesive cell proliferation under niclosamide treatment. Cells were treated daily with 1 μM niclosamide. The amount of viable cells per well was determined by MTT assay. (F) Anchorage-independent cell growth under niclosamide treatment. Cells were plated as single cells into 0.33% (w/v) agarose and treatment (solvent or 1 μM niclosamide) containing medium. After 7 days colonies were visualized by light microscopy at 10× (overview) and 40× (single colony) magnification. (G) Quantification of colonies formed. Number of colonies (of more than 4 cells) was counted and normalized to solvent-treated SW620 cells. Differences in solvent vs. niclosamide-treated cells were analyzed by Student's t test. Data represent mean mean±SE of at least two independent experiments each performed in duplicates.

SW620 cells = test: Boyden chamber invasion assay (Matrigel); settings: 1 μM, 24 h
Method: as §1, §2

DLD-1 cells = test: Boyden chamber invasion assay (Matrigel); settings: 1 μM, 24 h
Method: as §1, §2

SW480 cells = test: Boyden chamber invasion assay (Matrigel); settings: 1 μM, 24 h
Method: as §1, §2

O=C(Nc1ccc([N+](=O)[O-])cc1Cl)c1cc(Cl)ccc1O [niclosamide, 2′,5-dichloro-4′-nitrosalicylanilide]
WNT pathway activity, mean difference control vs niclosamide ([1]; HAB-68mut, 1 μM): 0.90
WNT pathway activity (TOPflash normalized to FOPflash), mean ([1]; HAB-68mut, 1 μM, control 1.39): 0.50
WNT pathway activity, mean difference control vs niclosamide ([1]; HAB-92 wt, 1 μM): 0.15
WNT pathway activity (TOPflash normalized to FOPflash), mean ([1]; HAB-92 wt, 1 μM, control 0.36): 0.21
WNT pathway activity, mean difference control vs niclosamide ([1]; HCT116, 1 μM): 0.61
WNT pathway activity (TOPflash normalized to FOPflash), mean ([1]; HCT116, 1 μM, control 1.00): 0.39
invasion, mean difference control vs niclosamide (LS174T cells): 39.5%
cell invasion, mean % (normalized to solvent-treated SW620 cells) (LS174T cells; solvent control 63.2%): 23.6%
invasion, mean difference control vs niclosamide (SW620 cells): 74.9%
cell invasion, mean % (normalized to solvent-treated SW620 cells) (SW620 cells; solvent control 100.0%): 25.1%
invasion rate (DLD-1 cells): not affected
invasion, mean difference control vs niclosamide (SW480 cells): 34.9%
cell invasion, mean % (normalized to solvent-treated SW620 cells) (SW480 cells; solvent control 47.7%): 12.8%
